Results as given in US9783527B2, “Indazole ureas and method of use” (AbbVie Inc., priority 2014, dated 2017).

Target: human Nav1.7 (Homo sapiens (Human), UniProt Q15858)
Experiment: FRET-based membrane potential assay, recombinant human sodium channel Nav1.7
Format: cell-based
Conditions: HEK293 cells stably expressing recombinant human Nav1.7; depolarization with veratridine (EC80) + scorpion venom
Outline: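 IC50 derived by four-parameter Hill fit of percent inhibition of depolarization, measured as peak F440-480/F565-625 ratio over baseline. Stable human Nav1.7 HEK293 cells, dye-loaded with CC2-DMPE and DiSBAC2(3)/VABSC-1 at room temperature, received compound 3 min ahead of veratridine (EC80) plus scorpion venom.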

human Nav1.7, sequence (Q15858 whole entry): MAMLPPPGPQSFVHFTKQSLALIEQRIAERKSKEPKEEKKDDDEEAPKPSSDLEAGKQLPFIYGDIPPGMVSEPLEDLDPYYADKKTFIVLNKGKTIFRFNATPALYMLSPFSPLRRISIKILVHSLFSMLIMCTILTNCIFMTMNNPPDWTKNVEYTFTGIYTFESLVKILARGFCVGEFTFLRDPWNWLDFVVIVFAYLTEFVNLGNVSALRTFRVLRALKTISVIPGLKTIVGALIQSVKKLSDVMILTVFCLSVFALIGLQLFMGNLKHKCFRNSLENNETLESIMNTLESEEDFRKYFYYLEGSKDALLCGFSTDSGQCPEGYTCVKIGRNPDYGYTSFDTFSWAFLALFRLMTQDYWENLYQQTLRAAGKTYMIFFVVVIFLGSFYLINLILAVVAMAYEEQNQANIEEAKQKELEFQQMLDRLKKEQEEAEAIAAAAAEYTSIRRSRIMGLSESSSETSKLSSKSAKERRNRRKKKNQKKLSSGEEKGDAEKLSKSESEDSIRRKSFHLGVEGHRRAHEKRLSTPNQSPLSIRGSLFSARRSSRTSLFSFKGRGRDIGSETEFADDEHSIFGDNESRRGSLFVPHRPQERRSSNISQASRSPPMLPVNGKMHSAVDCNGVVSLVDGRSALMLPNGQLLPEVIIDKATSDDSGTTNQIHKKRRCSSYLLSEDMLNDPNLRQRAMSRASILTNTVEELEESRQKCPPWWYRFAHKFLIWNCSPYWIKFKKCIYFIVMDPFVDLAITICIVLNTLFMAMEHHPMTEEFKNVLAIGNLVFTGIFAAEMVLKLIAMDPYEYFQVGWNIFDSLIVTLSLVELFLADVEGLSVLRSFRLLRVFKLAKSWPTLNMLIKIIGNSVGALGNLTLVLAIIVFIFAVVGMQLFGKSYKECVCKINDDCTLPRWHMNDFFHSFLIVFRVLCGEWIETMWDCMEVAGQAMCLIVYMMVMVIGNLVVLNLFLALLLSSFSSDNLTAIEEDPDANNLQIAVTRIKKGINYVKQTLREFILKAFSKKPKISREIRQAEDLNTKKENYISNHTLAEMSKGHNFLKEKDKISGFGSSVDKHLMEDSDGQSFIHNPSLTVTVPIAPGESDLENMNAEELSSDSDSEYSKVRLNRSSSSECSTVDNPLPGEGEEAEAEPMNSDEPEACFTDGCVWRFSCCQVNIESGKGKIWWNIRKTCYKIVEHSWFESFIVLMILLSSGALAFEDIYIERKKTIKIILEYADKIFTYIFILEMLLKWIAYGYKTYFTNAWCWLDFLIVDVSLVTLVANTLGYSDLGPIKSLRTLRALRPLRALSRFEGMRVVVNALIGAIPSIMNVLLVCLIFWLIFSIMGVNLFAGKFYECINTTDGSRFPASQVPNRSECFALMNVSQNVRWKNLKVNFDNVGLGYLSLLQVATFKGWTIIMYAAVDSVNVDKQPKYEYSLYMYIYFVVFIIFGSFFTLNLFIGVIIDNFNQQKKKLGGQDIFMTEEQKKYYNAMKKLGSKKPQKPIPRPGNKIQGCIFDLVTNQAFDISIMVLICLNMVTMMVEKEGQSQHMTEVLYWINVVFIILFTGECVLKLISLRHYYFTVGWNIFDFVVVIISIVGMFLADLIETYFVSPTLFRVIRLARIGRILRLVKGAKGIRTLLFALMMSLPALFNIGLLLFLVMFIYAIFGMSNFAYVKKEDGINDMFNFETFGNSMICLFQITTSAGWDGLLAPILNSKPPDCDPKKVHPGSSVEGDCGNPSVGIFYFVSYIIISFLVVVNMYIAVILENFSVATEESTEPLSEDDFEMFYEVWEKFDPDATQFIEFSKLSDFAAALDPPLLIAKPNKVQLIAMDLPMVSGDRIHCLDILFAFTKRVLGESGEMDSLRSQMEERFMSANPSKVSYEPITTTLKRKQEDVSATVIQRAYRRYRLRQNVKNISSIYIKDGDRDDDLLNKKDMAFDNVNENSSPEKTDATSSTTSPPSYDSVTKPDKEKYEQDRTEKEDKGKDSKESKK

SMILES	IC50
O=C(CN1CCN(c2cccc3c2cnn3-c2ccccc2F)C1=O)C1CCC1 [Example 164, 1-(2-cyclobutyl-2-oxoethyl)-3-[1-(2-fluorophenyl)-1H-indazol-4-yl]imidazolidin-2-one]	635 nM
O=C1N(c2cncnc2)CCN1c1cccc2c1cnn2-c1ccccc1F [Example 138, 1-[1-(2-fluorophenyl)-1H-indazol-4-yl]-3-(pyrimidin-5-yl)imidazolidin-2-one]	3310 nM
NS(=O)(=O)CN1CCN(c2cccc3c2cnn3-c2ccccc2F)C1=O [Example 58, 1-{3-[1-(2-fluorophenyl)-1H-indazol-4-yl]-2-oxoimidazolidin-1-yl}methanesulfonamide]	2290 nM
CCc1nc(CN2CCN(c3cccc4c3cnn4-c3ccccc3F)C2=O)cs1 [Example 250, 1-[(2-ethyl-1,3-thiazol-4-yl)methyl]-3-[1-(2-fluorophenyl)-1H-indazol-4-yl]imidazolidin-2-one]	1140 nM
CNS(=O)(=O)N1CCN(c2cccc3c2cnn3-c2ccccc2F)C1=O [Example 62, 3-[1-(2-fluorophenyl)-1H-indazol-4-yl]-N-methyl-2-oxoimidazolidine-1-sulfonamide]	1710 nM
CC(C)C[C@H](O)CN1CCN(c2cccc3c2cnn3-c2ccccc2F)C1=O [Example 156, 1-[1-(2-fluorophenyl)-1H-indazol-4-yl]-3-[(2S)-2-hydroxy-4-methylpentyl]imidazolidin-2-one]	1350 nM
COCCN1CCN(c2cccc3c2cnn3-c2ccccc2F)C1=O [Example 59, 1-[1-(2-fluorophenyl)-1H-indazol-4-yl]-3-(2-methoxyethyl)imidazolidin-2-one]	1890 nM
O=C1N(Cc2nc3ccccc3s2)CCN1c1cccc2c1cnn2-c1ccccc1F [Example 179, 1-(1,3-benzothiazol-2-ylmethyl)-3-[1-(2-fluorophenyl)-1H-indazol-4-yl]imidazolidin-2-one]	15400 nM
O=C1C(N2CCN(c3cccc4c3cnn4-c3ccccc3F)C2=O)CCN1Cc1ccccc1 (stereo not drawn) [Example 232, 1-(1-benzyl-2-oxopyrrolidin-3-yl)-3-[1-(2-fluorophenyl)-1H-indazol-4-yl]imidazolidin-2-one]	1150 nM
O=C1N(c2cnccc2F)CCN1c1cccc2c1cnn2-c1ccccc1F [Example 154, 1-[1-(2-fluorophenyl)-1H-indazol-4-yl]-3-(4-fluoropyridin-3-yl)imidazolidin-2-one]	2870 nM
CC(=O)CN1CCN(c2cccc3c2cnn3-c2ccccc2F)C1=O [Example 145, 1-[1-(2-fluorophenyl)-1H-indazol-4-yl]-3-(2-oxopropyl)imidazolidin-2-one]	6230 nM
O=C(CC1CCC1)CN1CCN(c2cccc3c2cnn3-c2ccccc2F)C1=O [Example 140, 1-(3-cyclobutyl-2-oxopropyl)-3-[1-(2-fluorophenyl)-1H-indazol-4-yl]imidazolidin-2-one]	878 nM
O=C1N(CC2COC2)CCN1c1cccc2c1cnn2-c1ccccc1F [Example 200, 1-[1-(2-fluorophenyl)-1H-indazol-4-yl]-3-(oxetan-3-ylmethyl)imidazolidin-2-one]	3610 nM
O=C1N(c2ccc(C3CC3)o2)CCN1c1cccc2c1cnn2-c1ccccc1F [Example 192, 1-(5-cyclopropyl-2-furyl)-3-[1-(2-fluorophenyl)-1H-indazol-4-yl]imidazolidin-2-one]	1360 nM
CC(C)CC(O)CN1CCCN(c2cccc3c2cnn3-c2ccccc2F)C1=O (stereo not drawn) [Example 186, 1-[1-(2-fluorophenyl)-1H-indazol-4-yl]-3-(2-hydroxy-4-methylpentyl)tetrahydropyrimidin-2(1H)-one]	1410 nM
O=C1N(CCc2ccccc2)CCN1c1cccc2c1cnn2-c1ccccc1F [Example 193, 1-[1-(2-fluorophenyl)-1H-indazol-4-yl]-3-(2-phenylethyl)imidazolidin-2-one]	998 nM
O=C1N(c2cccc3c2cnn3-c2ccccc2F)CCN1C1CN(C(=O)C2(O)CC2)C1 [Example 269, 1-[1-(2-fluorophenyl)-1H-indazol-4-yl]-3-{1-[(1-hydroxycyclopropyl)carbonyl]azetidin-3-yl}imidazolidin-2-one]	5790 nM
O=C1CC(C(=O)N2CCN(c3cccc4c3cnn4-c3ccccc3F)C2=O)C1 [Example 61, 1-[1-(2-fluorophenyl)-1H-indazol-4-yl]-3-[(3-oxocyclobutyl)carbonyl]imidazolidin-2-one]	2240 nM
COc1cccc(C(=O)CN2CCN(c3cccc4c3cnn4-c3ccccc3F)C2=O)c1 [Example 149, 1-[1-(2-fluorophenyl)-1H-indazol-4-yl]-3-[2-(3-methoxyphenyl)-2-oxoethyl]imidazolidin-2-one]	2970 nM
O=C1N(c2cccc3c2cnn3-c2ccccc2F)CCN1S(=O)(=O)C1CCCC1 [Example 77, 1-(cyclopentylsulfonyl)-3-[1-(2-fluorophenyl)-1H-indazol-4-yl]imidazolidin-2-one]	2790 nM

SMILES	IC50
Cc1nocc1CN1CCN(c2cccc3c2cnn3-c2ccccc2F)C1=O [Example 264, 1-[1-(2-fluorophenyl)-1H-indazol-4-yl]-3-[(3-methyl-1,2-oxazol-4-yl)methyl]imidazolidin-2-one]	3350 nM
O=C1N(CC(O)CC2CCCCC2)CCN1c1cccc2c1cnn2-c1ccccc1F (stereo not drawn) [Example 139, 1-(3-cyclohexyl-2-hydroxypropyl)-3-[1-(2-fluorophenyl)-1H-indazol-4-yl]imidazolidin-2-one]	2410 nM
CC(C)(C)CNC(=O)CN1CCN(c2cccc3c2cnn3-c2ccccc2F)C1=O [Example 357, N-(2,2-dimethylpropyl)-2-{3-[1-(2-fluorophenyl)-1H-indazol-4-yl]-2-oxoimidazolidin-1-yl}acetamide]	3060 nM
O=C(CN1CCN(c2cccc3c2cnn3-c2ccccc2F)C1=O)N1CCC(C(F)F)C1 (stereo not drawn) [Example 330, 1-{2-[3-(difluoromethyl)pyrrolidin-1-yl]-2-oxoethyl}-3-[1-(2-fluorophenyl)-1H-indazol-4-yl]imidazolidin-2-one]	1150 nM
O=C1N(c2cncs2)CCN1c1cccc2c1cnn2-c1ccccc1F [Example 158, 1-[1-(2-fluorophenyl)-1H-indazol-4-yl]-3-(1,3-thiazol-5-yl)imidazolidin-2-one]	20000 nM
O=C1N(c2nccs2)CCN1c1cccc2c1cnn2-c1ccccc1F [Example 221, 1-[1-(2-fluorophenyl)-1H-indazol-4-yl]-3-(1,3-thiazol-2-yl)imidazolidin-2-one]	9500 nM
O=C1N(CC(=O)N2CCCC2c2ccccc2)CCN1c1cccc2c1cnn2-c1ccccc1F (stereo not drawn) [Example 129, 1-[1-(2-fluorophenyl)-1H-indazol-4-yl]-3-[2-oxo-2-(2-phenylpyrrolidin-1-yl)ethyl]imidazolidin-2-one]	403 nM
Cn1cc2cc(N3CCN(c4cccc5c4cnn5-c4ccccc4F)C3=O)ccc2n1 [Example 191, 1-[1-(2-fluorophenyl)-1H-indazol-4-yl]-3-(2-methyl-2H-indazol-5-yl)imidazolidin-2-one]	2950 nM
O=C1N(c2ccccn2)CCN1c1cccc2c1cnn2-c1ccccc1F [Example 130, 1-[1-(2-fluorophenyl)-1H-indazol-4-yl]-3-(pyridin-2-yl)imidazolidin-2-one]	1850 nM
CN1C(=O)[C@H]2CN(C(=O)CN3CCN(c4cccc5c4cnn5-c4ccccc4F)C3=O)C[C@H]2C1=O [Example 108, (3aR,6aS)-5-({3-[1-(2-fluorophenyl)-1H-indazol-4-yl]-2-oxoimidazolidin-1-yl}acetyl)-2-methyltetrahydropyrrolo[3,4-c]pyrrole-1,3(2H,3aH)-dione]	12300 nM
Cc1nc(CN2CCN(c3cccc4c3cnn4-c3ccccc3F)C2=O)co1 [Example 211, 1-[1-(2-fluorophenyl)-1H-indazol-4-yl]-3-[(2-methyl-1,3-oxazol-4-yl)methyl]imidazolidin-2-one]	1900 nM
CCCS(=O)(=O)N1CCN(c2cccc3c2cnn3-c2ccccc2F)C1=O [Example 81, 1-[1-(2-fluorophenyl)-1H-indazol-4-yl]-3-(propylsulfonyl)imidazolidin-2-one]	4080 nM
O=C1N(c2cccc3c2cnn3-c2ccccc2F)CCN1[C@H]1CCOC1 [Example 224, 1-[1-(2-fluorophenyl)-1H-indazol-4-yl]-3-[(3S)-tetrahydrofuran-3-yl]imidazolidin-2-one]	3600 nM
CC(C)(O)[C@H]1CCN(C(=O)CN2CCN(c3cccc4c3cnn4-c3ccccc3F)C2=O)C1 [Example 85, 1-[1-(2-fluorophenyl)-1H-indazol-4-yl]-3-{2-[(3S)-3-(2-hydroxypropan-2-yl)pyrrolidin-1-yl]-2-oxoethyl}imidazolidin-2-one]	12300 nM
CC(C)C(=O)CN1CCN(c2cccc3c2cnn3-c2ccccc2F)C1=O [Example 162, 1-[1-(2-fluorophenyl)-1H-indazol-4-yl]-3-(3-methyl-2-oxobutyl)imidazolidin-2-one]	729 nM
O=C1N(CCc2cccnc2)CCN1c1cccc2c1cnn2-c1ccccc1F [Example 220, 1-[1-(2-fluorophenyl)-1H-indazol-4-yl]-3-[2-(pyridin-3-yl)ethyl]imidazolidin-2-one]	1840 nM
O=C1N(CC(=O)N2CCOC3CCCCC32)CCN1c1cccc2c1cnn2-c1ccccc1F (stereo not drawn) [Example 105, 1-[1-(2-fluorophenyl)-1H-indazol-4-yl]-3-[2-(octahydro-4H-1,4-benzoxazin-4-yl)-2-oxoethyl]imidazolidin-2-one]	1330 nM
CC(C)[C@H]1CCCCN1C(=O)CN1CCN(c2cccc3c2cnn3-c2ccccc2F)C1=O [Example 124, 1-[1-(2-fluorophenyl)-1H-indazol-4-yl]-3-{2-[(2R)-2-isopropylpiperidin-1-yl]-2-oxoethyl}imidazolidin-2-one]	1200 nM
O=C1N(c2cnccn2)CCN1c1cccc2c1cnn2-c1ccccc1F [Example 226, 1-[1-(2-fluorophenyl)-1H-indazol-4-yl]-3-(pyrazin-2-yl)imidazolidin-2-one]	3370 nM
